A short description of the data set: Encapsulation efficiency by ultracentrifugation and HPLC.

For the compound `C=C(C)[C@@H]1CCC(C)=C[C@H]1c1c(O)cc(CCCCC)cc1O` [CBD, cannabidiol], under “active ingredient 1% (w/w), oleic acid and polysorbate 20 preparation”, the “encapsulation efficiency of CBD (% EE)” value came out at 80.11%. For `CCCCCc1cc(O)c2c(c1)OC(C)(C)[C@@H]1CCC(C)=C[C@@H]21` [THC, Δ9-tetrahydrocannabinol], where the note is “tested concentrations 6% and 10% (w/w), oleic acid and polysorbate 20”, the “encapsulation efficiency, THC compared with CBD” value is “generally higher for THC over CBD”.

The values above are taken from patent US12472219B2, “Encapsulated cannabinoid formulations for transdermal delivery” (Nutrae, LLC, priority 2018, dated 2025).
